Laboratory results as given in patent US4011330A, “Vincaminic acid amides” (Synthelabo, priority 1974, dated 1977).
Where two headings read alike, the source gives them in different places.

Key:
[1] = Solubility in water (remark in preparation example); assay type: physicochemical; details: base
[2] = system: mice of strain CD1; test: Anoxia test on mice under low (oxygen) pressure conditions; assay type: in vivo; details: Mus musculus, ip, intraperitoneally 10 minutes before the test, 190 mm of mercury (5.25% of oxygen), read-out: MAD (mean active dose, the dose which increases the survival time by 100%)
Description: Anoxia test on mice under low (oxygen) pressure conditions
Mice of strain CD1 are kept in an atmosphere depleted in oxygen, by producing a partial vacuum (190 mm of mercury, corresponding to 5.25% of oxygen).
The survival time of the animals is noted. This time is increased by agents capable of assisting tissue oxygenation and in particular cerebral oxygenation. The compounds studied are administered in several doses intraperitoneally 10 minutes before the test. The percentage increases in the survival time relative to the values obtained with control animals are calculated. The mean active dose (MAD), the dose which increases the survival time by 100%, is determined graphically.

[3] = Acute toxicity (LD50) in mice; assay type: in vivo; details: mouse, in vivo, mice, compounds tested in a solution containing ascorbic acid; for LD50 at 168 h: oral, mortality over 7 days
Description: (§1) The compounds were administered orally to mice of the CD1 strain. The mortality was recorded over 7 days and the 50% lethal doses (LD50) were determined graphically.
(§2) The toxicities on intraperitoneal and intravenous administration were determined in accordance with the method of Miller and Taniter (Proc. Soc. Exp. Biol. Med. 1944- vol 57, page 261).

[4] = system: mice of the CD1 strain; test: Acute toxicity (LD50) in mice; assay type: in vivo
Description: as §1, §2

[5] = ip, intraperitoneal, read-out: LD50 intraperitoneal
[6] = intravenous, read-out: LD50 intravenous

Row | Structure (SMILES) | water solubility [1] | ED (100% increase in survival time) [2] [mg/kg] | LD50 [3, 5] [mg/kg] | LD50 [3, 6] [mg/kg] | LD50 at 168 h [3] [mg/kg] | resorption by the digestive tract ([4]; inferred from oral/intravenous LD50 ratio) | ratio of the LD50 for oral administration to the LD50 for intravenous administration ([4]; mice, oral/intravenous)
1 | CCC12CCCN3CCc4c(n(c5ccccc45)C(C(=O)NC4CCCCC4)C1)C32 (stereo not shown) [S.L.D. 135, N-cyclohexyldesoxyvincaminamide] | water-insoluble |  |  |  |  |  | 
2 | CCC12CCCN3CCc4c(n(c5ccccc45)C(C(=O)NC4CCC4)C1)C32 (stereo not shown) [SLD 142, N-cyclobutyldesoxyvincaminamide] |  | 0.5 |  |  |  |  | 
3 | CCC12CCCN3CCc4c(n(c5ccccc45)C(C(N)=O)C1)C32 (stereo not shown) [SLC 156, Desoxyvincaminamide] |  | 1.8 | 210 | 109 | 607 |  | 
4 | CCC12C=C(C(=O)NC3CC3)n3c4c(c5ccccc53)CCN(CCC1)C42 (stereo not shown) [SLD 121, N-monocyclopropylapovincaminamide] |  | 2.5 |  |  |  |  | 
5 | CCC12CCCN3CCc4c(n(c5ccccc45)C(C(=O)NC4CC4)C1)C32 (stereo not shown) [SLD 105, N-cyclopropyldesoxyvincaminamide] | water-insoluble | 1 | 165 | 76 | 290 | good | low
6 | CC[C@]12CCCN3CCc4c(n(c5ccccc45)[C@@](O)(C(=O)OC)C1)[C@@H]32 [Vincamine, reference compound] |  | 8 |  | 75 |  |  | 
